Measured values as given in ChEMBL document CHEMBL5729671, “Substituted pyrazolo[1,5-a]pyrazines as negative allosteric modulators of group II metabotropic glutamate receptor” (2023).

Molecular target: Metabotropic glutamate receptor 2 (Homo sapiens, UniProt Q14416)
Assay: Assessment of mGlu2 Receptor Negative Allosteric Modulator Activity: Human mGlu2 receptor stable expressing cells were prepared and incubated. Luminescence signals by mGlu2 receptor stimulation were detected with FDSS7000 (Hamamatsu Photonics). The compound solution prepared above was added to a plate where cells and luminescent substrates were added (10 μl/well). After 120 seconds of the addition, EC80 Glutamate-containing solution was added thereto (10 μl/well), and luminescence signals were measured for 300 seconds after the addition (center wavelength: 465 nm) for calculation of RLU (Integration). mGlu2 receptor negative allosteric modulator activity of a compound was calculated by (100-100×(RLU of each compound and concentration)/(RLU of DMSO group)).The present compound was assessed with the above biological test, and the compounds with mGlu2 receptor negative allosteric modulator activity were found out.

Metabotropic glutamate receptor 2, sequence (Q14416 whole entry): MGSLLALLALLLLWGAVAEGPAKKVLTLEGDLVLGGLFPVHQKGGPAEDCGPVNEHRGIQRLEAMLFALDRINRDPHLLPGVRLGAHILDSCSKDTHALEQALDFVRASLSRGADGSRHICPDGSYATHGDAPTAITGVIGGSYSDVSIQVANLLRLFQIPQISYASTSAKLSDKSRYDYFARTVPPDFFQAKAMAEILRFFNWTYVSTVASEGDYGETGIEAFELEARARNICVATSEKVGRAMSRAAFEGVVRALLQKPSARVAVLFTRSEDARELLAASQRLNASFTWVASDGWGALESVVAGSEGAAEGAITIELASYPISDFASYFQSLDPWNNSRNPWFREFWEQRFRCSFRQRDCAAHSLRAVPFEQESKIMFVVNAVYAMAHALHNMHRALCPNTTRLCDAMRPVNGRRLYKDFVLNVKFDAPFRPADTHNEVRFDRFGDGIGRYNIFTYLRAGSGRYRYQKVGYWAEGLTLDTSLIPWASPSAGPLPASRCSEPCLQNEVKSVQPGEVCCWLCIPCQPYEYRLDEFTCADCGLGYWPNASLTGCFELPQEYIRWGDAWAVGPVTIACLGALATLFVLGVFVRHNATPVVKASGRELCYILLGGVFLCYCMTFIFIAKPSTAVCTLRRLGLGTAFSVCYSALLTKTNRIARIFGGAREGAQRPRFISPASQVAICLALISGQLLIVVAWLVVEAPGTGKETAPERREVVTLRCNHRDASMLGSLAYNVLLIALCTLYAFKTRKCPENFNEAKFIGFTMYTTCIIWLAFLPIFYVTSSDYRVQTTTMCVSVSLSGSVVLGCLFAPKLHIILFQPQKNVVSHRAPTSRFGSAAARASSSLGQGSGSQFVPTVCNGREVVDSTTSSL

Row | Compound | IC50 [nM]
1 | C[C@H]1CN(c2ccc3c(c2)OC(F)(F)O3)C(=O)c2c(-c3ccc4nccn4c3)cnn21 | 19
2 | C[C@H]1CN(c2ccc(Cl)c(F)c2)C(=O)c2c(-c3ccc4nccn4c3)cnn21 | 18
3 | C[C@H]1CN(c2ccc(Cl)cc2)C(=O)c2c(-c3ccc4nccn4c3)cnn21 | 26

These reach a lower IC50. Values come first.

Row | IC50 [nM] | Compound
4 | 7.8 | CCc1cnc2ccc(-c3cnn4c3C(=O)N(c3ccc(C(F)(F)F)cc3)C[C@@H]4C)cn12
5 | 16 | C[C@H]1CN(c2ccc(C(F)(F)F)cn2)C(=O)c2c(-c3ccc4nccn4c3)cnn21
6 | 16 | Cc1cc(N2C[C@H](C)n3ncc(-c4ccc5ncc(C)n5c4)c3C2=O)ccc1F
7 | 9.1 | Cc1cnc2ccc(-c3cnn4c3C(=O)N(c3ccc(C(F)(F)F)cc3)C[C@@H]4C)cn12
